Measured values as given in ChEMBL document CHEMBL5608174, “Synthesis and biological evaluation of 4-phenyl-5-quinolinyl substituted isoxazole analogues as potent cytotoxic and tubulin polymerization inhibitors against ESCC” (Eur J Med Chem, 2024).
Activity calls are given as the source filed them. The calls are words filed in the database; no cut-off is given here.

Key:
[1] = test system: KYSE-70 cell line; test: Antiproliferative activity against human KYSE-70 cells assessed as inhibition of cell growth incubated for 48 hrs by MTT assay; type: functional, cell-based; conditions: KYSE-70, 48 h
[2] = test system: KYSE-270; test: Antiproliferative activity against human KYSE-270 cells assessed as inhibition of cell growth incubated for 48 hrs by MTT assay; type: functional, cell-based; conditions: KYSE-270, 48 h
[3] = test system: KYSE-450; test: Antiproliferative activity against human KYSE-450 cells assessed as inhibition of cell growth incubated for 48 hrs by MTT assay; type: functional, cell-based; conditions: KYSE-450, 48 h
[4] = target: T1, Tubulin (Homo sapiens) (UniProt P68371+Q9H4B7+P0DPH7+P68366+Q13509+Q71U36+P04350+Q3ZCM7+P07437+P68363+Q9BQE3+Q6PEY2+Q13885+Q9BVA1+Q9BUF5); test: Inhibition of tubulin polymerization in human KYSE-30 cells assessed as reduction in filamentous microtubule structure formation at 5 to 20 nmol/L incubated for 24 hrs by DAPI staining based fluorescence microscopic analysis; type: cell-based; conditions: dose 5-20 nmol/L
[5] = test system: KYSE-30; test: Inhibition of human KYSE-30 cells proliferation at 5 to 20 nmol/L incubated for 48 hrs by real time cellular analysis; type: functional, cell-based; conditions: dose 5-20 nmol/L
[6] = test system: KYSE-30; test: Induction of cell cycle arrest in human KYSE-30 cells assessed as accumulation of cells at G2/M phase at 10 nmol/L by PI staining based flow cytometric analysis; type: functional
[7] = test system: Esophageal squamous cell carcinoma cell; test: Antiproliferative activity against human Esophageal squamous cell carcinoma cells assessed as reduction in EdU-positive cells at 5 to 20 nmol/L incubated for 48 hrs by EdU staining based inverted fluorescence microscopic analysis; type: functional; conditions: dose 5-20 nmol/L
[8] = test system: KYSE-30; test: Induction of morphological changes in human KYSE-30 cells assessed as deformation at 5 to 20 nmol/L incubated for 48 hrs by Bright field microscopic analysis; type: functional, cell-based; conditions: dose 5-20 nmol/L
[9] = test system: KYSE-30; test: Induction of morphological changes in human KYSE-30 cells assessed as induction of fragmentation in nuclei at 5 to 20 nmol/L incubated for 48 hrs by DAPI staining based fluorescence microscopic analysis; type: functional, cell-based; conditions: dose 5-20 nmol/L
[10] = test system: KYSE-30; test: Induction of apoptosis in human KYSE-30 cells assessed as viable cells at 5 nmol/L incubated for 48 hrs by Annexin V-FITC/PI staining based flow cytometry analysis (reference value: 88.76 %); type: functional; conditions: read-out: Activity
[11] = test system: KYSE-30; test: Induction of apoptosis in human KYSE-30 cells assessed as necrotic cells at 5 nmol/L incubated for 48 hrs by Annexin V-FITC/PI staining based flow cytometry analysis (reference value: 1.59 %); type: functional
[12] = test system: KYSE-30; test: Induction of apoptosis in human KYSE-30 cells assessed as viable cells at 10 nmol/L incubated for 48 hrs by Annexin V-FITC/PI staining based flow cytometry analysis (reference value: 88.76 %); type: functional; conditions: read-out: Activity
[13] = test system: KYSE-30; test: Induction of apoptosis in human KYSE-30 cells assessed as late apoptotic cells at 10 nmol/L incubated for 48 hrs by Annexin V-FITC/PI staining based flow cytometry analysis (reference value: 5.27 %); type: functional
[14] = test system: KYSE-70 cell line; test: Induction of apoptosis in human KYSE-70 cells assessed as early apoptotic cells at 5 nmol/L incubated for 48 hrs by Annexin V-FITC/PI staining based flow cytometry analysis (reference value: 1.78%); type: functional
[15] = test system: Esophageal squamous cell carcinoma cell; test: Induction of apoptosis in human Esophageal squamous cell carcinoma cell assessed as […] of Bax level at 5 to 20 nmol/L incubated for 48 hrs by Western blot analysis; type: functional, cell-based; conditions: dose 5-20 nmol/L
[16] = test system: Esophageal squamous cell carcinoma cell; test: Induction of apoptosis in human Esophageal squamous cell carcinoma cell assessed as increase in caspase-9 activation at 5 to 20 nmol/L incubated for 48 hrs by Western blot analysis; type: functional, cell-based; conditions: dose 5-20 nmol/L
[17] = test system: Esophageal squamous cell carcinoma cell; test: Induction of apoptosis in human Esophageal squamous cell carcinoma cell assessed as increase in cleaved-PARP level at 5 to 20 nmol/L incubated for 48 hrs by Western blot analysis; type: functional, cell-based; conditions: dose 5-20 nmol/L
[18] = test system: KYSE-30; test: Inhibition of cell migration in human KYSE-30 cells at 2 to 6 nmol/L incubated upto 48 hrs by wound healing assay; type: functional, cell-based; conditions: dose 2-6 nmol/L
[19] = test system: KYSE-70 cell line; test: Inhibition of cell migration in human KYSE-70 cells at 2 to 6 nmol/L incubated upto 48 hrs by wound healing assay; type: functional, cell-based; conditions: dose 2-6 nmol/L
[20] = test system: KYSE-30; test: Antitumor activity against human KYSE-30 cells xenografted in female BALB/c-nu nude mouse assessed as reduction in tumor volume at 6 to 12 mg/kg, ip administered daily for 15 days; type: functional, organism-based; conditions: dose 6-12 mg/kg, time 15.0 day
[21] = test system: KYSE-30; test: Antitumor activity against human KYSE-30 cells xenografted in female BALB/c-nu nude mouse assessed as reduction in tumor weight at 6 to 12 mg/kg, ip administered daily for 15 days; type: functional, organism-based; conditions: dose 6-12 mg/kg, time 15.0 day
[22] = Toxicity in female BALB/c-nu nude mouse xenografted with human KYSE-30 cells assessed as effect on serum total bilirubin level at 6 to 12 mg/kg, ip administered for 15 days by biochemical analysis; type: organism-based; conditions: in vivo, 360 h, dose 6-12 mg/kg, time 15 day
[23] = Toxicity in female BALB/c-nu nude mouse xenografted with human KYSE-30 cells assessed as effect on serum creatinine level at 6 to 12 mg/kg, ip administered for 15 days by biochemical analysis; type: organism-based; conditions: in vivo, 360 h, dose 6-12 mg/kg, time 15 day
[24] = Toxicity in female BALB/c-nu nude mouse xenografted with human KYSE-30 cells assessed as change in heart pathology at 6 to 12 mg/kg, ip administered for 15 days by H and E staining based analysis; type: organism-based; conditions: in vivo, 360 h, dose 6-12 mg/kg, time 15 day
[25] = Toxicity in female BALB/c-nu nude mouse xenografted with human KYSE-30 cells assessed as change in spleen pathology at 6 to 12 mg/kg, ip administered for 15 days by H and E staining based analysis; type: organism-based; conditions: in vivo, 360 h, dose 6-12 mg/kg, time 15 day
[26] = Toxicity in female BALB/c-nu nude mouse xenografted with human KYSE-30 cells assessed as change in lung pathology at 6 to 12 mg/kg, ip administered for 15 days by H and E staining based analysis; type: organism-based; conditions: in vivo, 360 h, dose 6-12 mg/kg, time 15 day
[27] = Toxicity in female BALB/c-nu nude mouse xenografted with human KYSE-30 cells assessed as change in kidney pathology at 6 to 12 mg/kg, ip administered for 15 days by H and E staining based analysis; type: organism-based; conditions: in vivo, 360 h, dose 6-12 mg/kg, time 15 day
[28] = Cytotoxicity against HUVEC cells assessed as inhibition of cell growth incubated for 48 hrs by MTT assay; type: toxicity, cell-based; conditions: human
[29] = target: T1, Tubulin (Homo sapiens); test: Inhibition of tubulin polymerization in human KYSE-30 cells assessed as effect on mitotic phase at 5 to 20 nmol/L incubated for 24 hrs by DAPI staining based fluorescence microscopic analysis; type: cell-based; conditions: dose 5-20 nmol/L
[30] = test system: KYSE-30; test: Effect on nuclear replication in human KYSE-30 cells at 5 to 20 nmol/L incubated for 24 hrs by DAPI staining based fluorescence microscopic analysis; type: functional, cell-based; conditions: dose 5-20 nmol/L
[31] = target: T1, Tubulin (Homo sapiens); test: Inhibition of tubulin polymerization in human KYSE-70 cells assessed as multinucleation of cells at 5 to 20 nmol/L incubated for 24 hrs by DAPI staining based fluorescence microscopic analysis; type: cell-based; conditions: dose 5-20 nmol/L
[32] = test system: KYSE-30
Description: (§1) Antiproliferative activity against human KYSE-30 cells assessed as inhibition of cell proliferation incubated for 48 hrs by MTT assay

[33] = test system: KYSE-30; test: cells; conditions: Homo sapiens, KYSE-30, 48 h
Description: as §1

[34] = test system: HCT-116; test: cells; conditions: Homo sapiens, HCT-116, 48 h
Description: Antiproliferative activity against human HCT-116 cells assessed as inhibition of cell proliferation incubated for 48 hrs by MTT assay

With COc1ccc(-c2cnoc2-c2cc(C)nc3ccccc23)cc1 as the compound, how does the IC50 [1] read?
The IC50 was 7.79 nM.

What about the IC50 [2] of the same compound?
The IC50 was 41.8 nM.

And the IC50 [3]?
The IC50 was 19.2 nM.

What about the inhibition [4] of the same compound?
The inhibition was “Active”.

And the inhibition [5]?
The inhibition was “Active”.

And the Activity [6]?
The Activity was “Active”.

What about the Activity [7] of the same compound?
Its Activity is “Active”.

What about the Activity [8] of the same compound?
Its Activity is “Active”.

And the Activity [9]?
Its Activity is “Active”.

And the viability at 0.005 µM [10]?
Its viability at 0.005 µM is 38.8%.

What about the Activity [11] of the same compound?
Its Activity is 2.61%.

And the viability at 0.01 µM [12]?
Its viability at 0.01 µM is 37.5%.

What about the Activity [13] of the same compound?
The Activity was 11.91%.

What about the Activity [14] of the same compound?
The Activity was 8.24%.

What about the Activity [15] of the same compound?
The Activity was “Active”.

And the Activity [16]?
Its Activity is “Active”.

And the Activity [17]?
The Activity was “Active”.

What about the inhibition [18] of the same compound?
The inhibition was “Active”.

What about the inhibition [19] of the same compound?
Its inhibition is “Active”.

And the Activity [20]?
Its Activity is “Active”.

And the Activity [21]?
The Activity was “Active”.

What about the Activity [22] of the same compound?
Its Activity is “Non-Toxic”.

And the Activity [23]?
Its Activity is “Non-Toxic”.

What about the Activity [24] of the same compound?
The Activity was “Non-Toxic”.

And the Activity [25]?
The Activity was “Non-Toxic”.

What about the Activity [26] of the same compound?
The Activity was “Non-Toxic”.

What about the Activity [27] of the same compound?
Its Activity is “Non-Toxic”.

What about the IC50 at 48 h [28] of the same compound?
The IC50 at 48 h was over 710 nM.

And the inhibition [29]?
Its inhibition is “Active”.

What about the Activity [30] of the same compound?
Its Activity is “inactive”.

What about the inhibition [31] of the same compound?
The inhibition was “Active”.

And the IC50 [32]?
Its IC50 is 13.1 nM.

What about the IC50 [33] of the same compound?
Its IC50 is 13 nM.

What about the IC50 [34] of the same compound?
The IC50 was 26 nM.
